{"source": "PubChem BioAssay AID256", "about": "(DTP/NCI, 2004)", "test_system": "CD2F1 mice, L1210 leukemia ip, survival T/C", "assay": "NCI In Vivo Anticancer Drug Screen. Data for tumor model L1210 Leukemia (intraperitoneal) in CD2F1 (CDF1) mice", "conditions": "endpoint: mean survival time, schedule: Q04DX003 (ip), higher = longer survival", "outline": "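Read-out first: treated-group measurement over vehicle-control measurement, expressed as a ratio. Animals bore a transplanted tumor line and were dosed with compound or vehicle.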", "note": "Toxic doses and inconclusive results are not listed.", "data": [{"smiles": "O=C(CBr)CC(O)(C(F)(F)F)C(F)(F)F", "values": [{"measurement": "T/C", "setting": "dose: 12.5 mg/kg/injection, vehicle: saline", "result": "98 % of control"}]}, {"smiles": "O=C(Cl)c1ccccc1Sc1ccccc1", "values": [{"measurement": "T/C", "setting": "dose: 100.0 mg/kg/injection, vehicle: saline with Tween-80", "result": "87 % of control"}]}]}
